What was measured:
[1] = pH-potentiometric equilibrium titrations of the ligand (butrol) in the presence of Ca2+ ions; format: physicochemical
Experimental: The thermodynamic stability constant of Calcobutrol and the acid dissociation constant have been determined by pH-potentiometric equilibrium titrations of the ligand (butrol) in the presence of Ca^2+ ions (at 25° C., in 0.1 N KCl) at different ratios of Ca^2+:ligand.
Based on these measured values, the distribution of calcium between free calcium ion, neutral complex (Calcobutrol, ligand has two negative charges), and anionic complex (ligand has three negative charges) can be calculated for different pH values. […] Due to this equilibrium between the calcium-containing species, preparative methods in aqueous solution will lead to some impurities.

[2] = Properties of the Calcobutrol product and of Gadovist solutions prepared from it; format: physicochemical; details: product of the process
Description: The Calcobutrol prepared in this manner is characterised by a very high quality. […] The whole process, from Gadobutrol to Calcobutrol, is characterised by a high reproducibility and workability. The total yield of 91.2% is very good. […] The sodium salt of Calcobutrol is obtained through addition of a stoichiometric amount of sodium hydroxide in situ.

- thermodynamic stability constant log(KCaL-) ([1]; 25° C., 0.1 N KCl, different ratios of Ca2+:ligand, KCaL-=[CaL-]/[Ca2+][L3-]): 14.67±0.02
- acid dissociation constant pKa ([1]; 25° C., 0.1 N KCl, Ka=[CaL-][H+]/[CaLH]): 3.39±0.12
- share of neutral complex among the calcium-containing species ([1]; calculated from measured constants, at any pH (FIG. 1)): ≤ 20%
- solubility in water [2]: soluble in water
- storage stability [2]: stable for storage
Compound: O=C([O-])CN1CCN(CC(=O)[O-])CCN(C(CO)C(O)CO)CCN(CC(=O)[O-])CC1.O=C([O-])CN1CCN(CC(=O)[O-])CCN(C(CO)C(O)CO)CCN(CC(=O)[O-])CC1.[Ca+2].[Ca+2].[Ca+2] (centres unmarked) [Calcobutrol, calcium complex of 10-(2,3-Dihydroxy-1-(hydroxymethyl)propyl)-1,4,7,10-tetraazacyclodecane-1,4,7-triacetic acid]
